Assay results: patent US7078428B2, “Isoindolone derivatives, preparation process and intermediates of this process, their use as medicaments, and pharmaceutical compositions comprising them” (Sanofi-Aventis Deutschland GmbH, priority 2002, dated 2006)
pIC50: −log10 of the molar value.

What was measured:
NHE1 = target: T1, NHE1 (Homo sapiens, UniProt P19634); test: NHE inhibition FLIPR test (intracellular pH recovery, BCECF) in transfected LAP-1 cells; type: cell-based; conditions: transfected cell line (parental LAP-1) expressing the NHE-1 subtype, pHi recovery after acidification
T1 construct: expressed in transfected cells
Method: The NHE inhibitory activities (IC50 values) of the compounds according to the invention were determined by a FLIPR test.
The test is performed in the FLIPR (Fluorescent Imaging Plate Reader) equipped with clear-bottomed and black-walled 96-well microtitration plates.
The growth medium for the transfected cells (Iscove +10% foetal calf serum) also comprises G418 as selection antibiotic to ensure the presence of transfected sequences.
The actual test begins by eliminating the growth medium and adding 100 μl of loading buffer per well (5 μM of BCECF-AM [2′,7′-bis(2-carboxyethyl)-5-(6)-carboxyfluoresceine acetoxymethyl ester] in 20 mM of NH4Cl, 115 mM of choline chloride, 1 mM of CaCl2, 5 mM of KCl, 20 mM of HEPES and 5 mM of glucose; pH 7.4 (adjusted with KOH). The cells are then incubated for 20 minutes at 37° C. This incubation results in the loading of the fluorescent dye into the cells, the fluorescence intensity of which depends on the pHi, and on the NH4Cl, which results in a slight basification of the cells.
The precursor BCECF-AM, a non-fluorescent dye, is, as an ester, capable of crossing the membrane. The actual dye, which is incapable of crossing the membrane, is released inside the cell by esterases.
After this 20-minute incubation, the loading buffer, which comprises NH4Cl and free BCECF-AM, is removed by washing three times in the cell washing device (Tecan Columbus), each wash being performed with 400 μl of washing buffer (133.8 mM of choline chloride, 4.7 mM of KCl, 1.25 mM of MgCl2, 1.25 mM of CaCl2, 0.97 mM of K2HPO4, 0.23 mM of KH2PO4, 5 mM of HEPES and 5 mM of glucose; pH 7.4 (adjusted with KOH)). The residual volume remaining in the wells is 90 μl (possibly between 50 and 125 μl). This washing step removes the free BCECF-AM and results in an intracellular acidification (pHi of 6.3-6.4) due to the removal of the external ammonium ions.
As the equilibrium of the intracellular ammonium with the aqueous ammonia and the protons, by removal of the extracellular ammonium and by the subsequent immediate crossing of the aqueous ammonia across the cell membrane, is disrupted, the washing process results in intracellular protons remaining, which is the cause of the intracellular acidification. This acidification can result finally in the death of the cells if it lasts long enough. It is important here for the washing buffer to be free of sodium (<1 mM), otherwise the extracellular sodium ions would result in an immediate increase in the pHi on account of the activity of the cloned NHE isoforms. It is also important for all the buffers used (loading buffer, washing buffer and regeneration buffer) not to contain any HCO3-ions, otherwise the presence of bicarbonate would result in the activation of bicarbonate-dependent systems that disrupt the pHi regulation, which systems are contained in the LAP-1 parental cell line.
The microtiter plates containing acidified cells are then transferred (up to 20 minutes after the acidification) to the FLIPR. In the FLIPR, the intracellular fluorescent dye is activated with light of a wavelength of 488 nm, which is generated by an argon laser, and the measuring parameters (laser power, illumination time and diaphragm of the […] camera integrated into the FLIPR) are chosen such that the average value of the fluorescent signal per well is between 30,000 and 35,000 relative fluorescence units.
The actual measurement in the FLIPR starts with a photograph being taken by the CCD camera every two seconds under software control. After 10 seconds, the increase in the intracellular pH is initiated by adding 90 μl of regeneration buffer (133.8 mM of NaCl, 4.7 mM of KCl, 1.25 mM of MgCl2, 1.25 mM of CaCl2, 0.97 mM of K2HPO4, 0.23 mM of KH2PO4, 10 mM of HEPES and 5 mM of glucose; pH 7.4 (adjusted with NaOH)) using a 96-well pipette device incorporated into the FLIPR. Some wells, to which is added pure regeneration buffer, serve as positive controls (100% NHE activity). […]

T1 sequence (P19634 whole entry, species assumed): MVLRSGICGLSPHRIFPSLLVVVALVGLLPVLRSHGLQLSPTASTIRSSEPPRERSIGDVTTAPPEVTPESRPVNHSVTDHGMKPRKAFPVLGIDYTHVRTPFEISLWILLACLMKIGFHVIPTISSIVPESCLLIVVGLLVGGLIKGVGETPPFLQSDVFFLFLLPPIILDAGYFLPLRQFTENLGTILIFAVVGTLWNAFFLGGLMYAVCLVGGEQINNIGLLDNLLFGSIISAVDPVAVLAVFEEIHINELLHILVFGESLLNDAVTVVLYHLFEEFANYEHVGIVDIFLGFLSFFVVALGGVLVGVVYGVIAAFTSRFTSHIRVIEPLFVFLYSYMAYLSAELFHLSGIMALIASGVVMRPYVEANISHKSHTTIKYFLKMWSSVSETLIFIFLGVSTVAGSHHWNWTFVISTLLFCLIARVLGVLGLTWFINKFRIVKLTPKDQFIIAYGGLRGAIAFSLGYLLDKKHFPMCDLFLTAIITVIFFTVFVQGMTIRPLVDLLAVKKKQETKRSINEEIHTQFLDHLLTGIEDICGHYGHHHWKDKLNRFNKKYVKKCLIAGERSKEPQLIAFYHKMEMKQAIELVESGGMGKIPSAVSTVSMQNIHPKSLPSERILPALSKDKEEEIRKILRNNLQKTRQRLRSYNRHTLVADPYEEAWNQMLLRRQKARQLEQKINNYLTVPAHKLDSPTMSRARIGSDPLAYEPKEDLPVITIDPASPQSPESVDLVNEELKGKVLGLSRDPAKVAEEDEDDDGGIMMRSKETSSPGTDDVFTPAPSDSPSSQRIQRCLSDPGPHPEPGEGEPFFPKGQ

Compound	pIC50 (NHE1)	melting point [°C]
CC(C)CN1C(=O)c2ccccc2C1CC(=O)N=C(N)N (single isomer, unassigned; (-)) [Example 3, (−)-N-[2-(2-Isobutyl-3-oxo-2,3-dihydro-1H-isoindol-1-yl)acetyl]guanidine]	7.30	264
CN1C(=O)c2ccccc2C1CC(=O)N=C(N)N (stereo not shown) [Example 1, N-[2-(2-Methyl-3-oxo-2,3-dihydro-1H-isoindol-1-yl)acetyl]guanidine]	7.13	
CC(C)CN1C(=O)c2ccccc2C1CC(=O)N=C(N)N (stereo not shown) [Example 2, N-[2-(2-Isobutyl-3-oxo-2,3-dihydro-1H-isoindol-1-yl)acetyl]guanidine]	7.23	
CCCN1C(=O)c2ccccc2C1CC(=O)N=C(N)N (stereo not shown) [Example 5, N-[2-(3-Oxo-2-propyl-2,3-dihydro-1H-isoindol-1-yl)acetyl]guanidine]	7.04	229
CC(C)N1C(=O)c2ccccc2C1CC(=O)N=C(N)N (stereo not shown) [Example 7, N-[2-(2-Isopropyl-3-oxo-2,3-dihydro-1H-isoindol-1-yl)acetyl]guanidine]	6.94	
NC(N)=NC(=O)CC1c2ccccc2C(=O)N1Cc1ccccc1 (stereo not shown) [Example 9, N-[2-(2-Benzyl-3-oxo-2,3-dihydro-1H-isoindol-1-yl)acetyl]guanidine]	6.81	
CC(C)CN1C(=O)c2cc(OC(C)C)ccc2C1CC(=O)N=C(N)N (stereo not shown) [Example 16, N-[2-(2-Isobutyl-5-isopropoxy-3-oxo-2,3-dihydro-1H-isoindol-1-yl)-acetyl]-guanidine]	6.60	
CC(C)CN1C(=O)c2cccc(F)c2C1CC(=O)N=C(N)N (stereo not shown) [Example 17, N-[2-(7-Fluoro-2-isobutyl-3-oxo-2,3-dihydro-1H-isoindol-1-yl)acetyl]guanidine]	7.37	
N=C(N)NC(=O)CC1c2ccccc2C(=O)N1CC(F)(F)F (stereo not shown) [Example 22, N-[2-(3-Oxo-2-(2,2,2-trifluoroethyl)-2,3-dihydro-1H-isoindol-1-yl)acetyl]guanidine]	7.00	
Cc1ccc2c(c1)C(CC(=O)NC(=N)N)N(CC(C)C)C2=O (stereo not shown) [Example 35, N-[(2-Isobutyl-6-methyl-3-oxo-2,3-dihydro-1H-isoindol-1-yl)acetyl]guanidine]	7.42	
[H]/N=C(\N)NC(=O)CC1c2cc(S(C)(=O)=O)ccc2C(=O)N1CC(F)(F)F [Example 36, (R)-N-{2-[6-Methanesulfonyl-3-oxo-2-(2,2,2-trifluoro-ethyl)-2,3-dihydro-1H-isoindol-1-yl]-acetyl}-quanidine and (S)-N-{2-[6-Methanesulfonyl-3-oxo-2-(2,2,2-trifluoro-ethyl)-2,3-dihydro-1H-isoindol-1-yl]-acetyl}-quanidine]	7.51	
[H]/N=C(\N)NC(=O)CC1c2cc(S(C)(=O)=O)ccc2C(=O)N1CC1CC1 (stereo not shown) [Example 37, N-[2-(2-Cyclopropylmethyl-6-methanesulfonyl-3-oxo-2,3-dihydro-1H-isoindol-1-yl)acetyl]-guanidinium acetate]	6.73	
NC(N)=NC(=O)CC1c2cc(F)c(F)cc2C(=O)N1CC(F)(F)F (stereo not shown) [Example 45, N-{2-[5,6-Difluoro-3-oxo-2-(2,2,2-trifluoro-ethyl)-2,3-dihydro-1H-isoindol-1-yl]-acetyl}-guanidine]	6.67	
N-[2-(3-Oxo-2-(4,4,4-trifluorobutyl)-5-trifluoromethyl-2,3-dihydro-1H-isoindol-1-yl)-acetyl]guanidine and N-[2-(3-Oxo-2-(4,4,4-trifluorobutyl)-6-trifluoromethyl-2,3-dihydro-1H-isoindol-1-yl)acetyl]guanidine [Example 29]	5.63	
N-[2-(3-Oxo-5-trifluoromethyl-2-(3,3,3-trifluoropropyl)-2,3-dihydro-1H-isoindol-1-yl)-acetyl]guanidine and N-[2-(3-oxo-6-trifluoromethyl-2-(3,3,3-trifluoropropyl)-2,3-dihydro-1H-isoindol-1-yl)acetyl]guanidine [Example 27]	7.66	
N-[2-(5-Bromo-2-isobutyl-3-oxo-2,3-dihydro-1H-isoindol-1-yl)acetyl]guanidine and N-[(6-Bromo-2-isobutyl-3-oxo-2,3-dihydro-1H-isoindol-1-yl)acetyl]guanidine [Example 13]	7.66	
N-[2-(5-Chloro-3-oxo-2-(2,2,2-trifluoroethyl)-2,3-dihydro-1H-isoindol-1-yl)acetyl]-guanidine and N-[2-(6-chloro-3-oxo-2-(2,2,2-trifluoroethyl )-2,3-dihydro-1H-isoindol-1yl)acetyl]quanidine [Example 23]	7.46	
N-[2-(5-Chloro-3-oxo-2-(4,4,4-trifluorobutyl)-2,3-dihydro-1H-isoindol-1-yl)acetyl]-guanidine and N-[2-(6-chloro-3-oxo-2-(4,4,4-trifluorobutyl)-2,3-dihydro-1H-isoindol-1yl)acetyl]guanidine [Example 28]	7.06	

The next compounds have a higher pIC50 (NHE1) than those just listed; values first:

pIC50 (NHE1)	melting point [°C]	Compound
7.74		Cc1cccc2c1C(=O)N(CC(C)C)C2CC(=O)N=C(N)N (stereo not shown) [Example 20, N-[2-(2-Isobutyl-4-methyl-3-oxo-2,3-dihydro-1H-isoindol-1-yl)-acetyl]-guanidine]
8.00		N-[2-(2-Cyclopropylmethyl-3-oxo-5-trifluoromethyl-2,3-dihydro-1H-isoindol-1-yl)acetyl]-guanidine and N-[2-(2-cyclopropylmethyl-3-oxo-6-trifluoromethyl-2,3-dihydro-1H-isoindol-1-yl)acetyl]guanidine [Example 25]
8.07		N-[2-(5-Chloro-3-oxo-2-(3,3,3-trifluoropropyl)-2,3-dihydro-1H-isoindol-1-yl)acetyl]-guanidine and N-[2-(6-chloro-3-oxo-2-(3,3,3-trifluoropropyl)-2,3-dihydro-1H-isoindol-1-yl)acetyl]quanidine [Example 26]
8.11		N-[2-(6-Chloro-2-cyclopropylmethyl-3-oxo-2,3-dihydro-1H-isoindol-1-yl )-acetyl]-guanidine and N-[2-(5-Chloro-2-cyclopropylmethyl-3-oxo-2,3-dihydro-1H-isoindol-1 yl)-acetyl]-guanidine [Example 24]
8.15		N-[2-(5-Chloro-2-isobutyl-3-oxo-2,3-dihydro-1H-isoindol-1-yl)acetyl]guanidine and N-[(6-Chloro-2-isobutyl-3-oxo-2,3-dihydro-1H-isoindol-1-yl)acetyl]guanidine [Example 12]
8.31		NC(N)=NC(=O)CC1c2cc(C(F)(F)F)ccc2C(=O)N1CC(F)(F)F (stereo not shown) [Example 21, N-{2-[3-Oxo-2-(2,2,2-trifluoro-ethyl)-6-trifluoromethyl-2,3-dihydro-1H-isoindol-1-yl]-acetyl}-quanidine]
8.52		[H]/N=C(\N)NC(=O)CC1c2cc(Cl)c(Cl)cc2C(=O)N1CCC(F)(F)F (stereo not shown) [Example 41a, N-{2-[5,6-Dichloro-3-oxo-2-(3,3,3-trifluoro-propyl)-2,3-dihydro-1H-isoindol-1-yl]-acetyl}-guanidine acetate]
8.70		NC(N)=NC(=O)CC1c2cc(Cl)c(Cl)cc2C(=O)N1CC(F)(F)F (stereo not shown) [Example 44a, N-{2-[5,6-Dichloro-3-oxo-2-(2,2,2-trifluoro-ethyl)-2,3-dihydro-1H-isoindol-1-yl]-acetyl}-guanidine acetate]
